Source: BindingDB's records for doi:10.7270/Q2736PBV (Broad Institute, 2009)

Target: T1, Streptokinase A (Streptococcus pyogenes serotype M1, UniProt P10520)
T1 sequence (P10520 whole entry): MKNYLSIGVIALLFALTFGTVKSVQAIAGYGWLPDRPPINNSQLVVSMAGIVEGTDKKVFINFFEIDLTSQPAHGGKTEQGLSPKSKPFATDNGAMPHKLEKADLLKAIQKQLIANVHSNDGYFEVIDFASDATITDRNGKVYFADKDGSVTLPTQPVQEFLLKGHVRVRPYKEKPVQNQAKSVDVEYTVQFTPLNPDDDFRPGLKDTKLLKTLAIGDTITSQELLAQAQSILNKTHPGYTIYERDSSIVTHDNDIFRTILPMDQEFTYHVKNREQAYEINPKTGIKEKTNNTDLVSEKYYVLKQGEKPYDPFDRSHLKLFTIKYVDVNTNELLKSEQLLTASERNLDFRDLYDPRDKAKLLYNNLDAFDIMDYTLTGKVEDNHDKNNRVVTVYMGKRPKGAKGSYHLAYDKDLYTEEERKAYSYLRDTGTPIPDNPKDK
Experiment: viability-normalized secreted streptokinase activity reduction – plasminogen activation absorbance, OD405, dose response (AID 1914)

`Cc1ccc(F)c(NC(=O)C(C#N)C(=O)c2ccc(C(C)(C)C)cc2)c1` (stereo not drawn) [(Z)-2-(4-tert-butylphenyl)carbonyl-3-[(2-fluoranyl-5-methyl-phenyl)amino]-3-oxidanyl-prop-2-enenitrile] was tested. Which EC50 did it give?
The EC50 was > 150 µM.

For `Cc1nc(N=NC(C)c2ccc(Br)cc2)cc(N2CCCCC2)n1` (stereo not drawn) [N-[1-(4-bromophenyl)ethylideneamino]-2-methyl-6-piperidin-1-ylpyrimidin-4-amine], which EC50 is on record?
The EC50 was 46.7 µM.

Which EC50 does the source give for `O=C1C([N+](=O)[O-])=CC(Cl)=CC1CN=Nc1ccccn1` (stereo not drawn) [MLS000539830] here?
Its EC50 is 11.1 µM.

For `Cc1ccc2c(c1)=C(NNC(=O)c1ccc(NS(=O)(=O)c3cccs3)cc1)C(=O)N=2` [N-[4-[[(5-methyl-2-oxoindol-3-yl)amino]carbamoyl]phenyl]thiophene-2-sulfonamide], which EC50 is on record?
Its EC50 is > 150 µM.

`Cc1ccc(-n2c(=O)c3[nH][nH]n(CC(=O)N4N=C(c5cccc6ccccc56)CC4c4ccccc4)c=3c2=O)cc1` (stereo not drawn) [MLS000546672] was tested. Which EC50 did it give?
Its EC50 is 35.7 µM.

`COc1ccc(OC)c(NC=C2C(=O)NC(=S)N(Cc3ccccc3)C2=O)c1` was tested. Which EC50 did it give?
Its EC50 is > 150 µM.

How did the EC50 turn out when `CCCCN1C(=O)/C(=N\NC(=O)c2ccccc2NS(=O)(=O)c2cccs2)c2ccccc21` [N-[(Z)-(1-butyl-2-oxoindol-3-ylidene)amino]-2-(thiophen-2-ylsulfonylamino)benzamide] was run?
Its EC50 is > 150 µM.

For `C=CCN1C(=O)NC(=O)C(=C(CC)Nc2ccc(N(C)C)cc2)C1=O` [(5E)-5-[1-[4-(dimethylamino)anilino]propylidene]-1-prop-2-enyl-1,3-diazinane-2,4,6-trione], which EC50 is on record?
Its EC50 is > 150 µM.

With `O=C1C([N+](=O)[O-])=CC(Cl)=CC1/C=N/NC(=O)C(O)(c1ccccc1)c1ccccc1` (stereo not drawn) [N''''-[(E)-(3-chloro-5-nitro-6-oxocyclohexa-2,4-dien-1-ylidene)methyl]-2-hydroxy-2,2-diphenylacetohydrazide] as the compound, how does the EC50 read?
Its EC50 is > 150 µM.

For `CNC(=Nc1cc(Cl)ccc1Cl)Sc1cc(O)n(-c2ccc(C(=O)OC)cc2)c1O` [4-[3-[[(2,5-dichloroanilino)-methyliminomethyl]thio]-2,5-dioxo-1-pyrrolidinyl]benzoic acid methyl ester], which EC50 is on record?
Its EC50 is 50 µM.

For `O=C1N=C(Nc2ccccc2)SC1=Cc1c[nH]c2ccccc12` [MLS000766635], which EC50 is on record?
The EC50 was > 150 µM.

Which EC50 does the source give for `CCOC(=O)C1C(=N)Oc2ccc3ccccc3c2C1c1ccc(O)cc1` (stereo not drawn) [3-amino-1-(4-hydroxyphenyl)-1H-benzo[f][1]benzopyran-2-carboxylic acid ethyl ester] here?
Its EC50 is 11.5 µM.

With `COc1ccc2nc(-n3c(O)c[nH]c3=S)sc2c1` [3-(6-methoxy-1,3-benzothiazol-2-yl)-2-sulfanylidene-imidazolidin-4-one] as the compound, how does the EC50 read?
Its EC50 is > 150 µM.

`N#CC(C(=O)COc1ccccc1)c1nc2ccccc2s1` (stereo not drawn) [(2Z)-2-(3H-1,3-benzothiazol-2-ylidene)-3-keto-4-phenoxy-butyronitrile] was tested. Which EC50 did it give?
Its EC50 is 7.55 µM.

How did the EC50 turn out when `C=c1[nH][nH]c(=O)c1=Cc1cn(-c2ccccc2)nc1-c1ccc(Cl)cc1` [SMR000193592] was run?
The EC50 was 4.83 µM.

With `O=C1C2C(=NC(=S)NC2c2ccc(Cl)cc2)NC(c2ccc(Cl)cc2)N1c1ccc(Cl)cc1` (stereo not drawn) [SMR000155440] as the compound, how does the EC50 read?
The EC50 was > 150 µM.

With `CCOc1ccc(CN=Nc2cc(N3CCOCC3)nc(C)n2)c(O)c1` [(6E)-3-ethoxy-6-[[2-(2-methyl-6-morpholin-4-yl-pyrimidin-4-yl)hydrazinyl]methylidene]cyclohexa-2,4-dien-1-one] as the compound, how does the EC50 read?
Its EC50 is > 150 µM.

With `Cc1cc(C)n(C(=O)C(C#N)N=Nc2cc(Cl)cc(Cl)c2)n1` (stereo not drawn) [SMR000335596] as the compound, how does the EC50 read?
The EC50 was > 150 µM.

How did the EC50 turn out when `S=C1N=C(C23CC4CC(CC(C4)C2)C3)CC(c2ccc3c(c2)OCO3)N1` (stereo not drawn) was run?
The EC50 was 22.5 µM.

`CC(C)c1ccc2c(c1)=C(NNC(=O)c1cccc(S(=O)(=O)N3CCCCC3)c1)C(=O)N=2` [SMR000243307] was tested. Which EC50 did it give?
The EC50 was > 150 µM.

With `Oc1ccc2ccccc2c1CN=Nc1nnc(-c2ncc[nH]2)c2ccccc12` [SMR000151639] as the compound, how does the EC50 read?
Its EC50 is 5.52 µM.

How did the EC50 turn out when `CCCCCCn1[nH]c(C)c(C(=O)c2ccc(Cl)cc2)c1=O` [4-(4-Chloro-benzoyl)-2-hexyl-5-methyl-2,4-dihydro-pyrazol-3-one] was run?
Its EC50 is > 150 µM.

With `O=C(CCCCCNC(=O)c1ccccc1)NNC1=c2cc(Br)cc(Br)c2=NC1=O` [N-[6-[2-[5,7-bis(bromanyl)-2-oxidanylidene-indol-3-yl]hydrazinyl]-6-oxidanylidene-hexyl]benzamide] as the compound, how does the EC50 read?
Its EC50 is > 150 µM.

Which EC50 does the source give for `CCC1C(c2ccccc2)NC(c2ccccc2)C(CC)C1N=O` (stereo not drawn) [SMR000283074] here?
Its EC50 is 13.3 µM.

`C[N+](C)(C)c1ccc(CN=Nc2nc(Cl)c(C#N)c(Cl)c2Cl)cc1` [trimethyl-[4-[[(3,4,6-trichloro-5-cyanopyridin-2-yl)hydrazinylidene]methyl]phenyl]azanium;iodide] was tested. Which EC50 did it give?
The EC50 was > 150 µM.

For `Cc1cc(N=NC(C)c2ccccc2O)nc(-c2ccccc2O)n1` (stereo not drawn), which EC50 is on record?
The EC50 was 14 µM.

Which EC50 does the source give for `COc1cccc(N=NCc2cccc(Br)c2O)c1` [(6E)-2-bromo-6-[[2-(3-methoxyphenyl)hydrazinyl]methylidene]cyclohexa-2,4-dien-1-one] here?
Its EC50 is 19.6 µM.

How did the EC50 turn out when `Cc1ccsc1C1CC(c2cccc(Br)c2)=Nc2ncnn21` (stereo not drawn) [5-(3-bromophenyl)-7-(3-methylthien-2-yl)-4,7-dihydro[1,2,4]triazolo[1,5-a]pyrimidine] was run?
The EC50 was > 150 µM.

With `O=C1C(=NNC(=S)Nc2ccccc2F)c2ccccc2N1Cc1ccc(F)cc1` as the compound, how does the EC50 read?
Its EC50 is 0.607 µM.

For `CCCc1sc(N=NCc2ccccn2)nc1-c1ccc(F)cc1` [SMR000116776], which EC50 is on record?
Its EC50 is > 150 µM.

How did the EC50 turn out when `CCOc1ccc2[nH]c(=O)c(CN(CC3COCCO3)C(=O)C3CC3)cc2c1` (stereo not drawn) [MLS000031787] was run?
The EC50 was > 150 µM.

For `C=CCn1c(SCC(=O)C(C#N)C(C)=N)nc2sc(C)c(C)c2c1=O` (stereo not drawn), which EC50 is on record?
The EC50 was > 150 µM.

How did the EC50 turn out when `Cc1cc(N=NCc2cccc(Br)c2)nc2ccccc12` [N-[(3-bromophenyl)methylideneamino]-4-methyl-2-quinolinamine] was run?
Its EC50 is > 150 µM.

For `CCCCN1C(=O)NC(=O)C(=C(C)Nc2ccc(OCC)cc2)C1=O` [SMR000058103], which EC50 is on record?
The EC50 was > 150 µM.

Which EC50 does the source give for `CC(=N)C(C#N)C(=O)CSc1nc2scc(-c3ccccc3)c2c(=O)n1C` (stereo not drawn) [(E)-3-azanyl-2-[2-(3-methyl-4-oxidanylidene-5-phenyl-thieno[2,3-d]pyrimidin-2-yl)sulfanylethanoyl]but-2-enenitrile] here?
Its EC50 is > 150 µM.

`CCc1ccc(C2C(C#N)C(=N)C(C#N)(C#N)C3=CCC(C(C)(C)C)CC32)cc1` (stereo not drawn) [SMR000115124] was tested. Which EC50 did it give?
The EC50 was 5.84 µM.

With `N#Cc1c(-c2c(Cl)cccc2Cl)noc1CC=Nc1ccc(C(=O)O)cc1` [SMR000337673] as the compound, how does the EC50 read?
Its EC50 is > 150 µM.

With `O=[N+]([O-])c1cc(Br)c(O)c(CN=Nc2nnnn2-c2cccc3ccccc23)c1` [(6E)-2-bromo-6-[[2-(1-naphthalen-1-yltetrazol-5-yl)hydrazinyl]methylidene]-4-nitrocyclohexa-2,4-dien-1-one] as the compound, how does the EC50 read?
The EC50 was > 150 µM.

With `O=C(CSc1ccc(Cl)cc1)Nc1cc(=O)n(-c2ccccc2)[nH]1` [SMR000672521] as the compound, how does the EC50 read?
The EC50 was 9.33 µM.

With `CCOc1cccc(CN=Nc2ccc(S(=O)(=O)N(CC)CC)cn2)c1O` [6-[2-[(E)-(5-ethoxy-6-oxidanylidene-cyclohexa-2,4-dien-1-ylidene)methyl]hydrazinyl]-N,N-diethyl-pyridine-3-sulfonamide] as the compound, how does the EC50 read?
The EC50 was > 150 µM.

With `COc1cccc(C(=O)Oc2ccc(CN=Nc3ccc(C(=O)O)cc3)cc2OC)c1` [SMR000502791] as the compound, how does the EC50 read?
The EC50 was > 150 µM.

How did the EC50 turn out when `CN1C(=O)C(=NNC(=S)Nc2ccccc2F)c2cc(S(=O)(=O)N3CCOCC3)ccc21` [SMR000314843] was run?
Its EC50 is > 150 µM.

How did the EC50 turn out when `Cc1ccccc1CN=Nc1nc2ccccc2[nH]1` [SMR000305031] was run?
The EC50 was > 150 µM.

Which EC50 does the source give for `O=C1N=c2ccccc2=C1NNC(=S)NCCc1ccccc1` [1-[(2-oxo-3-indolyl)amino]-3-(2-phenylethyl)thiourea] here?
Its EC50 is > 150 µM.

With `O=C(Nc1nnc(-c2ccc(Br)cc2)o1)c1cccc(-n2c(O)ccc2O)c1` [MLS001235111] as the compound, how does the EC50 read?
Its EC50 is > 150 µM.

Which EC50 does the source give for `CC(=N)C(C#N)C(=O)COC(=O)c1cc(-c2ccc(Br)cc2)nc2ccccc12` (stereo not drawn) [SMR000264784] here?
Its EC50 is 4.43 µM.

Which EC50 does the source give for `CCCCCCCCOC(=O)C1C(C)=Nc2nnnn2C1c1cccs1` (stereo not drawn) [MLS000519969] here?
Its EC50 is 50 µM.

For `O=C1Nc2ccccc2C1=NNc1ccc(S(=O)(=O)Nc2cccc(Cl)c2)cc1[N+](=O)[O-]` [N-(3-chlorophenyl)-3-nitro-4-[2-(2-oxoindol-3-yl)hydrazinyl]benzenesulfonamide], which EC50 is on record?
Its EC50 is 27.4 µM.

Which EC50 does the source give for `Cc1ccc(Nc2nc(N=NCc3ccc4c(c3)OCO4)nc(N3CCOCC3)n2)cc1` [2-N-(1,3-benzodioxol-5-ylmethylideneamino)-4-N-(4-methylphenyl)-6-morpholin-4-yl-1,3,5-triazine-2,4-diamine] here?
The EC50 was 111 µM.

With `COc1ccccc1CN=Nc1cc(C)nc(-n2nc(C)cc2C)n1` [SMR000212744] as the compound, how does the EC50 read?
Its EC50 is > 150 µM.

Which EC50 does the source give for `CC(NNC(=O)c1cc2ccccc2cc1O)=C1C(=O)c2ccccc2C1=O` [N-[1-[1,3-bis(oxidanylidene)inden-2-yl]ethylideneamino]-3-oxidanyl-naphthalene-2-carboxamide] here?
Its EC50 is > 150 µM.

How did the EC50 turn out when `CCOc1ccc(NC(=S)NNC2=c3ccccc3=NC2=O)cc1` was run?
The EC50 was > 150 µM.

`O=C(O)COc1ccc(CN=Nc2nc(Nc3ccccc3)nc(N3CCCCC3)n2)cc1` [SMR000312685] was tested. Which EC50 did it give?
The EC50 was > 150 µM.

For `CCN(CC)c1ccc(C=NC(C#N)C(=N)C#N)cc1` (stereo not drawn) [SMR000023871], which EC50 is on record?
Its EC50 is > 150 µM.

`Cc1[nH]c2ccccc2c1CN=Nc1nc2ccccc2[nH]1` [N-(1H-Benzoimidazol-2-yl)-N'-[1-(2-methyl-1H-indol-3-yl)-meth-(E)-ylidene]-hydrazine] was tested. Which EC50 did it give?
Its EC50 is > 150 µM.

For `CCCCCCC(=O)NNC=C1C(=O)NC(=S)N(C(C)CC)C1=O` (stereo not drawn) [SMR000439319], which EC50 is on record?
The EC50 was > 150 µM.

`Oc1ccc(CN=Nc2ccc3ccccc3c2)c(O)c1` [(4E)-3-hydroxy-4-[(2-naphthalenylhydrazo)methylidene]-1-cyclohexa-2,5-dienone] was tested. Which EC50 did it give?
The EC50 was > 150 µM.

For `COc1ccc(C(=O)Oc2ccc(C(C)=O)cc2)c(OC)c1` [(4-acetylphenyl) 2,4-dimethoxybenzoate], which EC50 is on record?
Its EC50 is > 150 µM.
